Results reported in paper PMC7206119, “RIP1 inhibition blocks inflammatory diseases but not tumor growth or metastases” (Cell Death and Differentiation, 2019).

How the values were obtained:
Assay in all cases: biochemical
Set-up in all cases: DiscoverX kinase panel, active-site competition binding (KINOMEscan type), percent of control at one concentration
Settings in all cases: competition binding, percent of control
[1] = molecular target: WNK2 (Homo sapiens, UniProt Q9Y3S1)
[2] = molecular target: MKNK2 (Homo sapiens, UniProt Q9HBH9)
[3] = molecular target: T1, JAK2(JH1domain-catalytic) (Homo sapiens, UniProt O60674)
T1 construct: JH1domain-catalytic

[4] = molecular target: MARK1 (Homo sapiens, UniProt Q9P0L2)
Sequence of MARK1 (Q9P0L2 whole entry): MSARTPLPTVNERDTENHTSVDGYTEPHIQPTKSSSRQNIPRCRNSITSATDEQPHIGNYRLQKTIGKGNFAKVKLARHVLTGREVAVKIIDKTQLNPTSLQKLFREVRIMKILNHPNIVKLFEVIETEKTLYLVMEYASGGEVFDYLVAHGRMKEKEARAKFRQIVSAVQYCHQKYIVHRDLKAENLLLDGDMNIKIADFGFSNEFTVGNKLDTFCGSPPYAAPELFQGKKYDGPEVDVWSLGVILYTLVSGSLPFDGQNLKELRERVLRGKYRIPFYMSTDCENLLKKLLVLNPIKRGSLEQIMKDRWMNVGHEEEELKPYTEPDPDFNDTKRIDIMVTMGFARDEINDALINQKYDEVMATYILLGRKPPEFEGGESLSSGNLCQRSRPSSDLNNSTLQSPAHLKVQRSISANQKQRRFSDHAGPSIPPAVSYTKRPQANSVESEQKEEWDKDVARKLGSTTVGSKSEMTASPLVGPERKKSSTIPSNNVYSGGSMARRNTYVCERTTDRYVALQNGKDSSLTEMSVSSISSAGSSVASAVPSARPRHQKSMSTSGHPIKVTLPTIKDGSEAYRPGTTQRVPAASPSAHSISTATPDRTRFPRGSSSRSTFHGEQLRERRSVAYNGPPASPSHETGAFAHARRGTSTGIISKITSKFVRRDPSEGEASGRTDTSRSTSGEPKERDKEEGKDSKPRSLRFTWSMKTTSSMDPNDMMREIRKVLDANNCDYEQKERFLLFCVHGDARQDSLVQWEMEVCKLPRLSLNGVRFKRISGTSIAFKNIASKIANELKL

[5] = molecular target: NEK11 (Homo sapiens, UniProt Q8NG66)
Sequence of NEK11 (Q8NG66 whole entry): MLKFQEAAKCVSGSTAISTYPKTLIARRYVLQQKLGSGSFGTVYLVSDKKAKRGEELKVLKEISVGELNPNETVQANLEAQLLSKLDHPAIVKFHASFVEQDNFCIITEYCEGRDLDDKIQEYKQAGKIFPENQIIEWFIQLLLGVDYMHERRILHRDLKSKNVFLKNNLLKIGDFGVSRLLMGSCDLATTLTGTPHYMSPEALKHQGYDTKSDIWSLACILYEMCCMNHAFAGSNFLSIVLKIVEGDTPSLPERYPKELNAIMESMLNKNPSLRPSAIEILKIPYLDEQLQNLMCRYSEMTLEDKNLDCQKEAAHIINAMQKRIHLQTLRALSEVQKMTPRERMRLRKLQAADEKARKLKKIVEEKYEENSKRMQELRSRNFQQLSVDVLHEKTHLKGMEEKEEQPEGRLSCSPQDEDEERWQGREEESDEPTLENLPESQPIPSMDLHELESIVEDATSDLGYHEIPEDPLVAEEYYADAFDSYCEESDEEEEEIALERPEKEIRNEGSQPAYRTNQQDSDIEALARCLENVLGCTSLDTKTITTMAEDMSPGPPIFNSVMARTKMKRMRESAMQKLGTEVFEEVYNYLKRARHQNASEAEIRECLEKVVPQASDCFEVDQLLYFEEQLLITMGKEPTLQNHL

[6] = molecular target: PIK3CA(M1043I) (Homo sapiens, UniProt P42336, M1043I)
[7] = molecular target: T2, MEK4 (Homo sapiens, UniProt P45985)
T2 construct: gene MAP2K4
T2 sequence (P45985 whole entry): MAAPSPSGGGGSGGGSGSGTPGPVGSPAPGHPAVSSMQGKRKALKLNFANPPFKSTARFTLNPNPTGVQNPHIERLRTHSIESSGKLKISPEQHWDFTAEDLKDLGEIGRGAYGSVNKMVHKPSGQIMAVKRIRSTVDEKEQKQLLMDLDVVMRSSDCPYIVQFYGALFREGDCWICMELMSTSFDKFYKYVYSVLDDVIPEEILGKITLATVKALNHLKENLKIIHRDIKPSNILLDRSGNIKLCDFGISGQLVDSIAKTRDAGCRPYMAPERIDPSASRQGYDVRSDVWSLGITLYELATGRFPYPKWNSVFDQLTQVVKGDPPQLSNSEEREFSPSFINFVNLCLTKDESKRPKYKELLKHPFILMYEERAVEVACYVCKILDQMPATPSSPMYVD

[8] = molecular target: RET(V804M) (Homo sapiens, UniProt P07949, V804M)
[9] = molecular target: T3, RSK2(Kin.Dom.2-C-terminal) (Homo sapiens, UniProt P51812)
T3 construct: gene RPS6KA3; Kin.Dom.2-C-terminal

[10] = molecular target: T4, PRP4 (Homo sapiens, UniProt Q13523)
T4 construct: gene PRPF4B

[11] = molecular target: PRKCQ (Homo sapiens, UniProt Q04759)
Sequence of PRKCQ (Q04759 whole entry): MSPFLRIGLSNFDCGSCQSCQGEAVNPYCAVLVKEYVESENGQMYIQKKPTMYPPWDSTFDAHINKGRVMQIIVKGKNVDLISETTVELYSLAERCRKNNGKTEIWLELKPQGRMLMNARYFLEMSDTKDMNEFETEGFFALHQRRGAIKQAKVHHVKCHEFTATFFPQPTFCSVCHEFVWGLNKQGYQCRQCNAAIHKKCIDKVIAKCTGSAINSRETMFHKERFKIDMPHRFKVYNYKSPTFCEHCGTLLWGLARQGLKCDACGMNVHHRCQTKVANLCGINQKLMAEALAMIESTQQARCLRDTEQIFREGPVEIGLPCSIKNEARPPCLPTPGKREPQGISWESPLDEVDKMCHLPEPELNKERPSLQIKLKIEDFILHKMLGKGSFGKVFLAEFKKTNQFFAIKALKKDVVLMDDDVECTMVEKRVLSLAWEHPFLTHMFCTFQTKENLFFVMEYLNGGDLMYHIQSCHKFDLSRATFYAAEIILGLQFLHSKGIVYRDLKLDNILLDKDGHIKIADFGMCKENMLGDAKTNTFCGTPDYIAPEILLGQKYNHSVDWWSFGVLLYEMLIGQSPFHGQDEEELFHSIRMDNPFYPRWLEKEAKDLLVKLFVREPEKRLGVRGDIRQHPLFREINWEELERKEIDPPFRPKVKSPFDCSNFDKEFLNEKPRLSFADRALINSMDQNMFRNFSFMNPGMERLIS

[12] = molecular target: EPHA1 (Homo sapiens, UniProt P21709)
[13] = molecular target: T5, PYK2 (Homo sapiens, UniProt Q14289)
T5 construct: gene PTK2B

[14] = molecular target: EPHA7 (Homo sapiens, UniProt Q15375)
[15] = molecular target: T6, PCTK2 (Homo sapiens, UniProt Q00537)
T6 construct: gene CDK17

[16] = molecular target: LIMK1 (Homo sapiens, UniProt P53667)
Sequence of LIMK1 (P53667 whole entry): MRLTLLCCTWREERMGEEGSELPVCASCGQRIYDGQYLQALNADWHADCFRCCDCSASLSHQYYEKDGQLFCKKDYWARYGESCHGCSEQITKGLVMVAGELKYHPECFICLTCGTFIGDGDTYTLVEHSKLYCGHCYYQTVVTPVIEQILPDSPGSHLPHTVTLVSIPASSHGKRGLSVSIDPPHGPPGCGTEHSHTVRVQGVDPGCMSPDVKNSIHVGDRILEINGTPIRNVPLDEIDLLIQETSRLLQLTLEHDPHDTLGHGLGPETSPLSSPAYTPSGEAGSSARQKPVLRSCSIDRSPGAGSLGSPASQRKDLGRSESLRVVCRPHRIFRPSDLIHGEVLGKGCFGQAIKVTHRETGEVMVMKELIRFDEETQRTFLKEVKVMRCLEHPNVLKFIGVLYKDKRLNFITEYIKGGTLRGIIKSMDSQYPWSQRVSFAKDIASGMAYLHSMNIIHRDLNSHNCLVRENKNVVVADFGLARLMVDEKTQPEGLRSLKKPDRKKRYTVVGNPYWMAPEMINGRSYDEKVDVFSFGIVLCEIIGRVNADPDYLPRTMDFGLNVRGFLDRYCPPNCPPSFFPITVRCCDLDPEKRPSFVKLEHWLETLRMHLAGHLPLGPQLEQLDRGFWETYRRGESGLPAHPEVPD

[17] = molecular target: T7, BRK (Homo sapiens, UniProt Q13882)
T7 construct: gene PTK6
T7 sequence (Q13882 whole entry): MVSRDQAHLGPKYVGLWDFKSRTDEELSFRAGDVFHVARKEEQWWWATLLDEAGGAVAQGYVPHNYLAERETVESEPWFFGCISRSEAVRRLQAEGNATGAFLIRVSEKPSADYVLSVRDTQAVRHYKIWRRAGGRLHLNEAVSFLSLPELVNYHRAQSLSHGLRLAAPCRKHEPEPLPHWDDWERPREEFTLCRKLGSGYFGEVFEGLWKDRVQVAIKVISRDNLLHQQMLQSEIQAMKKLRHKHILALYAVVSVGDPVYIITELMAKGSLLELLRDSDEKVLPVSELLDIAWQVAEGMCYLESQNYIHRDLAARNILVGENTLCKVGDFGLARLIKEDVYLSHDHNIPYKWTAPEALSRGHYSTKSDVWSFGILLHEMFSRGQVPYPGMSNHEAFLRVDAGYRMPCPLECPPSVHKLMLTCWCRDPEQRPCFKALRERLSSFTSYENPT

[18] = molecular target: CASK (Homo sapiens, UniProt O14936)
[19] = molecular target: PIK3CD (Homo sapiens, UniProt O00329)
Sequence of PIK3CD (O00329 whole entry): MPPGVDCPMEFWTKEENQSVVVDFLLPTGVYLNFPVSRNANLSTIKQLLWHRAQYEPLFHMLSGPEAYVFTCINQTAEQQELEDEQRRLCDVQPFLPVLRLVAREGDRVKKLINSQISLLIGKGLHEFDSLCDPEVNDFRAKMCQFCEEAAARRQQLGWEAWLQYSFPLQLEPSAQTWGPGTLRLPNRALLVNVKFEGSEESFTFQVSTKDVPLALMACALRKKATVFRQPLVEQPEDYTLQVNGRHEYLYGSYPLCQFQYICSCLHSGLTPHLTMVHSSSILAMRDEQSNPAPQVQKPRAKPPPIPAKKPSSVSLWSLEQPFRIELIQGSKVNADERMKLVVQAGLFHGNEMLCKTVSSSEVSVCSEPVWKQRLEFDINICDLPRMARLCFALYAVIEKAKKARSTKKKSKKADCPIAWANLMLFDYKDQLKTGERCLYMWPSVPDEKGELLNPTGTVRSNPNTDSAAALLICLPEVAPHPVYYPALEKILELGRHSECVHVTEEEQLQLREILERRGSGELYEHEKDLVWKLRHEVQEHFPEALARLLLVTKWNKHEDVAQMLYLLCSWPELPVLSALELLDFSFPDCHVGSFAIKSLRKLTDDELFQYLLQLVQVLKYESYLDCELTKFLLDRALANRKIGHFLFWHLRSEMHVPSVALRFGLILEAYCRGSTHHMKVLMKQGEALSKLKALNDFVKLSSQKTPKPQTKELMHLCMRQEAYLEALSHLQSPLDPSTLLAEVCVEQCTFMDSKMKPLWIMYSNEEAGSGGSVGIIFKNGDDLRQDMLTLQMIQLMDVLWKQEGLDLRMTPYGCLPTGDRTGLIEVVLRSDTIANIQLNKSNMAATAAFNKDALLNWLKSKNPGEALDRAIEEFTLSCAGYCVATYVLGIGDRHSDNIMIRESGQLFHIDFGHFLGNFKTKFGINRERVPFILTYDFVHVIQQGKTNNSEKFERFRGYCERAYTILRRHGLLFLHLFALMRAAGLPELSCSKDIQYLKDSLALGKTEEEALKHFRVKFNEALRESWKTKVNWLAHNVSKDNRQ

[20] = molecular target: T8, DLK (Homo sapiens, UniProt Q12852)
T8 construct: gene MAP3K12

[21] = molecular target: TLK2 (Homo sapiens, UniProt Q86UE8)

Q: Which remaining binding at 10 µM [1] does the source give for `COc1cc2c(cn1)N(C)C(=O)[C@@H](NC(=O)c1nc3n(n1)[C@H](c1ccccc1)CC3)CC2` [GNE684, (S)-N-((S)-7-methoxy-1-methyl-2-oxo-2,3,4,5-tetrahydro-1H-pyrido[3,4-b]azepin-3-yl)-5-phenyl-6,7-dihydro-5H-pyrrolo[1,2-b][1,2,4]triazole-2-carboxamide] here?
A: 83%

Q: And the remaining binding at 10 µM [2]?
A: 96%

Q: What about the remaining binding at 10 µM [3] of the same compound?
A: 100%

Q: What about the remaining binding at 10 µM [4] of the same compound?
A: 69%

Q: What about the remaining binding at 10 µM [5] of the same compound?
A: 100%

Q: What about the remaining binding at 10 µM [6] of the same compound?
A: 99%

Q: What about the remaining binding at 10 µM [7] of the same compound?
A: 88%

Q: What about the remaining binding at 10 µM [8] of the same compound?
A: 100%

Q: And the remaining binding at 10 µM [9]?
A: 85%

Q: What about the remaining binding at 10 µM [10] of the same compound?
A: 84%

Q: What about the remaining binding at 10 µM [11] of the same compound?
A: 100%

Q: What about the remaining binding at 10 µM [12] of the same compound?
A: 93%

Q: And the remaining binding at 10 µM [13]?
A: 92%

Q: And the remaining binding at 10 µM [14]?
A: 100%

Q: What about the remaining binding at 10 µM [15] of the same compound?
A: 100%

Q: And the remaining binding at 10 µM [16]?
A: 96%

Q: And the remaining binding at 10 µM [17]?
A: 100%

Q: And the remaining binding at 10 µM [18]?
A: 72%

Q: And the remaining binding at 10 µM [19]?
A: 78%

Q: What about the remaining binding at 10 µM [20] of the same compound?
A: 100%

Q: And the remaining binding at 10 µM [21]?
A: 100%
